The source of these data is PubChem BioAssay AID192 (DTP/NCI, 2004).

Several values for one entry are separate records, joined by “and”; a condition that tells them apart may be missing. Equal values may be shown once. Inconclusive results and toxic doses are left out.

For the assay, the system named is BDF1 mice, B16 melanoma ip, median survival T/C. Kind of assay: NCI In Vivo Anticancer Drug Screen. Data for tumor model B16 Melanoma (intraperitoneal) in B6D2F1 (BDF1) mice. As to conditions: endpoint: median survival time, higher = longer survival. Summed up: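 The ratio T/C compares compound-treated mice with vehicle-treated controls, using survival or tumor size as the endpoint in a transplantable tumor model.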

[1] abbreviates: dose: 12.5 mg/kg/injection, schedule: Q01DX009 (ip), vehicle: saline.
The mark [2] stands for this setting: dose: 25.0 mg/kg/injection, schedule: Q01DX009 (ip), vehicle: saline.
Setting [3] is: dose: 50.0 mg/kg/injection, schedule: Q01DX009 (ip), vehicle: saline.
[4] abbreviates: dose: 10.0 mg/kg/injection, schedule: Q01DX009 (ip), vehicle: saline with Tween-80.
The mark [5] stands for this setting: dose: 0.5 mg/kg/injection, schedule: Q01DX009 (ip), vehicle: saline.
Setting [6] is: dose: 1.0 mg/kg/injection, schedule: Q01DX009 (ip), vehicle: saline.
[7] abbreviates: dose: 2.0 mg/kg/injection, schedule: Q01DX009 (ip), vehicle: saline.
Where [8] appears, read: dose: 4.0 mg/kg/injection, schedule: Q01DX009 (ip), vehicle: saline.
[9] abbreviates: dose: 50.0 mg/kg/injection, schedule: Q01DX009 (ip), vehicle: saline with Tween-80.
Where [10] appears, read: dose: 100.0 mg/kg/injection, schedule: Q01DX009 (ip), vehicle: saline with Tween-80.
The mark [11] stands for this setting: dose: 200.0 mg/kg/injection, schedule: Q01DX009 (ip), vehicle: saline with Tween-80.
[12] abbreviates: dose: 400.0 mg/kg/injection, schedule: Q01DX009 (ip), vehicle: saline with Tween-80.

For `CCCCCCCCCCCC(=O)N(CCCC)CCCC`, the T/C reads like this: (dose: 37.5 mg/kg/injection, schedule: Q01DX009 (ip), vehicle: Klucel (hydroxypropylcellulose) (HPC)) 101 % of control; (dose: 75.0 mg/kg/injection, schedule: Q01DX009 (ip), vehicle: Klucel (hydroxypropylcellulose) (HPC)) 101 % of control; (dose: 150.0 mg/kg/injection, schedule: Q01DX009 (ip), vehicle: Klucel (hydroxypropylcellulose) (HPC)) 97 % of control.

Regarding `Cc1nn(CCO)c(C)c1N=[N+]([O-])c1c(C)nn(CCO)c1C`, the T/C (dose: 15.0 mg/kg/injection, schedule: Q01DX011 (ip), vehicle: saline with Tween-80) was 88 % of control.

Turning to `CCN(CC)CCOC(=O)c1ccc(N)cc1`, the T/C is, setting by setting: (dose: 6.25 mg/kg/injection, schedule: Q01DX009 (ip), vehicle: saline) 100 % of control; under setting [1], 92 % of control; under setting [2], 100 % of control; under setting [3], 107 % of control; (dose: 100.0 mg/kg/injection, schedule: Q01DX009 (ip), vehicle: saline) 105 % of control.

On to `Cc1cc(C)c(CCl)cc1CCl`, for which the T/C reads like this: under setting [4], 110 % of control; (dose: 20.0 mg/kg/injection, schedule: Q01DX009 (ip), vehicle: saline with Tween-80) 95 % of control; (dose: 20.0 mg/kg/injection, schedule: Q04DX003 (ip), vehicle: saline with Tween-80) 100 % of control; (dose: 40.0 mg/kg/injection, schedule: Q01DX009 (ip), vehicle: saline with Tween-80) 102 % of control; (dose: 40.0 mg/kg/injection, schedule: Q04DX003 (ip), vehicle: saline with Tween-80) 100 % of control.

Regarding `OC(CCl)Cc1ccccc1` (centres undefined), the T/C is 102 % of control under setting [1], 95 % of control under setting [2] and 100 % of control under setting [3].

With `COc1cccc2c1C(=O)c1c(O)c3c(c(O)c1C2=O)C[C@@](O)(/C(CO)=N/NC(=O)c1ccc(Cl)c(Cl)c1)C[C@@H]3OC1CC(N)C(O)C(C)O1` (some centres undefined), the T/C is, setting by setting: (dose: 2.5 mg/kg/injection, schedule: Q01DX001 (ip), vehicle: other) 119 % of control; (dose: 10.0 mg/kg/injection, schedule: Q01DX001 (ip), vehicle: water) 111 % of control and 252 % of control; (dose: 20.0 mg/kg/injection, schedule: Q01DX001 (ip), vehicle: other) 247 % of control; (dose: 20.0 mg/kg/injection, schedule: Q01DX001 (ip), vehicle: water) 102 % of control; (dose: 40.0 mg/kg/injection, schedule: Q01DX001 (ip), vehicle: water) 250 % of control; (dose: 80.0 mg/kg/injection, schedule: Q01DX001 (ip), vehicle: water) 105 % of control.

For the compound `CC[C@@]1(O)C(=O)OCc2c1cc1n(c2=O)Cc2cc3c(OC)cccc3nc2-1`, the T/C runs as follows: (dose: 0.39 mg/kg/injection, schedule: Q01DX009 (ip), vehicle: other) 150 % of control; (dose: 0.79 mg/kg/injection, schedule: Q01DX009 (ip), vehicle: other) 161 % of control; (dose: 2.0 mg/kg/injection, schedule: Q01DX009 (ip), vehicle: Klucel (hydroxypropylcellulose) (HPC)) 175 % of control; (dose: 4.0 mg/kg/injection, schedule: Q01DX009 (ip), vehicle: carboxymethylcellulose (CMC)) 172 % of control.

Consider `Cc1c2ccnc(C(N)=O)c2c(C)c2c1[nH]c1ccccc12`, for which the T/C reads like this: (dose: 100.0 mg/kg/injection, schedule: Q04DX003 (ip), vehicle: distilled water + Tween-80) 100 % of control; (dose: 200.0 mg/kg/injection, schedule: Q04DX003 (ip), vehicle: distilled water + Tween-80) 114 % of control.

As for `C=C(C)C12CC(C)C34OC5(CCCCCCCC(C)C6C(C)C(OC(=O)c7ccccc7)C(O)(C(O)C7(COC(=O)CCCCCCCCCCCCCCC)OC7C3C1O5)C64)O2` (centres undefined), the T/C is 107 % of control (dose: 1.5 micrograms/kg/injection, schedule: Q01DX009 (ip), vehicle: saline); 102 % of control (dose: 1.9 micrograms/kg/injection, schedule: Q01DX009 (ip), vehicle: Klucel (hydroxypropylcellulose) (HPC)); 100 % of control (dose: 3.1 micrograms/kg/injection, schedule: Q01DX009 (ip), vehicle: saline); 88 % of control (dose: 3.8 micrograms/kg/injection, schedule: Q01DX009 (ip), vehicle: Klucel (hydroxypropylcellulose) (HPC)); 104 % of control (dose: 6.2 micrograms/kg/injection, schedule: Q01DX009 (ip), vehicle: saline); 98 % of control (dose: 7.5 micrograms/kg/injection, schedule: Q01DX009 (ip), vehicle: Klucel (hydroxypropylcellulose) (HPC)). Also, the T/C runs as follows: (dose: 12.5 micrograms/kg/injection, schedule: Q01DX009 (ip), vehicle: saline) 95 % of control; (dose: 15.0 micrograms/kg/injection, schedule: Q01DX009 (ip), vehicle: Klucel (hydroxypropylcellulose) (HPC)) 87 % of control; (dose: 25.0 micrograms/kg/injection, schedule: Q01DX009 (ip), vehicle: saline) 102 % of control; (dose: 50.0 micrograms/kg/injection, schedule: Q01DX009 (ip), vehicle: saline) 96 % of control.

Consider `CC(C)n1c2c([n+](C)c1/C=C/c1ccccc1)C(=O)c1ccccc1C2=O`, for which the T/C was 94 % of control (dose: 0.13 mg/kg/injection, schedule: Q01DX009 (ip), vehicle: saline); 96 % of control (dose: 0.25 mg/kg/injection, schedule: Q01DX009 (ip), vehicle: saline); 100 % of control under setting [5]; 94 % of control (dose: 1.0 mg/kg/injection, schedule: Q01DX009 (ip), vehicle: saline with Tween-80); 102 % of control under setting [6]; 90 % of control under setting [7]. For the same compound, the T/C under setting [8] was 97 % of control.

Take `CC(=O)OCC12CCC(C)=CC1OC1C(OS(C)(=O)=O)C(=O)C2(C)C12CO2` (centres undefined): the T/C is, setting by setting: under setting [5], 101 % of control; under setting [6], 95 % of control; under setting [7], 104 % of control; under setting [8], 88 % of control.

`Cc1cc(C)c(OC2=C(c3c(C)cc(C)cc3C)C(=O)c3ccccc32)c(C)c1`: the T/C by setting is: under setting [9], 104 % of control; under setting [10], 100 % of control; under setting [11], 98 % of control; under setting [12], 91 % of control.

On to `CCC(C)C(NC=O)C(=O)O` (centres undefined), for which the T/C is, setting by setting: under setting [9], 97 % of control; under setting [10], 95 % of control; under setting [11], 92 % of control; under setting [12], 91 % of control.

As to `COC1OC2COC(c3ccccc3)OC2C(O)C1N` (centres undefined), the T/C was 95 % of control (dose: 25.0 mg/kg/injection, schedule: Q01DX009 (ip), vehicle: saline with Tween-80); 91 % of control (dose: 33.0 mg/kg/injection, schedule: Q04DX003 (ip), vehicle: saline with Tween-80); 95 % of control under setting [9]; 93 % of control (dose: 75.0 mg/kg/injection, schedule: Q04DX003 (ip), vehicle: saline with Tween-80); 90 % of control under setting [10].

Take `Cc1cc([NH-])c([NH-])cc1C.[Cl][Pt+2][Cl]`: the T/C was 108 % of control (dose: 1.25 mg/kg/injection, schedule: Q01DX009 (ip), vehicle: saline with Tween-80); 123 % of control (dose: 2.5 mg/kg/injection, schedule: Q01DX009 (ip), vehicle: saline with Tween-80); 161 % of control under setting [4].

`C/C=C\C(C)=C/C(C)C(=O)CC(O)CC1CC(=O)NC(=O)C1` (centres undefined): the T/C (dose: 3.12 mg/kg/injection, schedule: Q01DX009 (ip), vehicle: DMSO) is 95 % of control; the T/C (dose: 6.25 mg/kg/injection, schedule: Q01DX009 (ip), vehicle: DMSO) is 119 % of control; the T/C (dose: 12.5 mg/kg/injection, schedule: Q01DX009 (ip), vehicle: DMSO) is 103 % of control; the T/C (dose: 25.0 mg/kg/injection, schedule: Q01DX009 (ip), vehicle: DMSO) was 96 % of control.

On to `Oc1ccc(Nc2ccnc3cc(Cl)ccc23)cc1CN(CCCl)CCCl`, for which the T/C is 97 % of control (dose: 0.31 mg/kg/injection, schedule: Q01DX009 (ip), vehicle: saline); 105 % of control (dose: 0.63 mg/kg/injection, schedule: Q01DX009 (ip), vehicle: saline); 107 % of control and 113 % of control (dose: 1.25 mg/kg/injection, schedule: Q01DX009 (ip), vehicle: saline); 115 % of control (dose: 2.5 mg/kg/injection, schedule: Q01DX009 (ip), vehicle: saline).
